Data published in US20260345619A1 (Principia Biopharma Inc., priority 2023, published 2026).

Columns and labels:
[1] = system: 251 kinases sharing a common cysteine in their active site; conditions: cited from earlier work
[2] = molecular target: tyrosine protein kinase TEC; conditions: cited from earlier work
[3] = Time to LOAC post-randomization (Cox regression, Kaplan-Meier); format: in vivo, human
Excerpt: Time to LOAC post-randomization was to be analyzed using a Cox regression model with treatment (Cox 1972), baseline IgE strata, and region (pooled country) as covariates. The Kaplan-Meier (KM) method was to be used to estimate the probabilities of the event at specific time points for each treatment group (Kaplan and Meier 1958). Nominal p-value from log-rank test stratified by baseline IgE strata and region was also to be provided.

[4] = healthy volunteers; cited from earlier work
[5] = Participants with ≥2, ≥3, ≥4, ≥5 additional reliever puffs of salbutamol/albuterol or levosalbutamol/levalbuterol; format: in vivo, human; conditions: for Number of participants with ≥2 additional reliever puffs vs baseline on 2 consecutive days / Number of participants with ≥3 additional reliever puffs vs baseline on 2 consecutive days / Number of participants with ≥4 additional reliever puffs vs baseline on 2 consecutive days / Number of participants with ≥5 additional reliever puffs vs baseline on 2 consecutive days / Participants with ≥2 additional reliever puffs vs baseline on 2 consecutive days, figure in parentheses (share) / Participants with ≥3 additional reliever puffs vs baseline on 2 consecutive days, figure in parentheses (share) / Participants with ≥4 additional reliever puffs vs baseline on 2 consecutive days, figure in parentheses (share) / Participants with ≥5 additional reliever puffs vs baseline on 2 consecutive days, figure in parentheses (share): 12-week treatment period
Description: An analysis was performed on the number of participants with ≥2, ≥3, ≥4, and ≥5 additional reliever puffs of salbutamol/albuterol or levosalbutamol/levalbuterol compared with baseline on 2 consecutive days during the treatment period, to assess increase in reliever medication during 12-week treatment period.

[6] = Safety: adverse events (TEAEs, SAEs, AESIs), vital signs, labs; format: in vivo, human; conditions: for Participants with any TEAE / Participants with any TEAE leading to death / Participants with any TEAE related to IMP / Participants with any severe TEAE / Participants with any treatment emergent AESI / Participants with any treatment emergent SAE: safety population
Excerpt: In terms of safety, […], adverse events of special interest (AESIs), vital signs, and laboratory analyses were to be reported.
Safety assessments included physical examinations, measurements of vital signs, electrocardiograms, clinical safety laboratory assessments, and pregnancy testing.
An AE is any untoward medical occurrence in a patient or clinical study participant, temporally associated with the use of study intervention, whether or not considered related to the study intervention.
An adverse event of special interest (AESI) is an AE (serious or nonserious) of scientific and medical concern specific to the Sponsor's product or program, for which ongoing monitoring and immediate notification by the Investigator to the Sponsor was required. Such events may have required further investigation in order to characterize and understand them. Adverse events of special interest may have been added, modified or removed during a study by protocol amendment. AESIs include the following: • Pregnancy of a participant entered in a study as well as pregnancy occurring in a female partner of a participant entered in a study with IMP. • Symptomatic overdose (serious or nonserious) with IMP. • Other project-specific AESI(s), including: severe infections including opportunistic infections; tuberculosis or initiation of medications for suspected tuberculosis; active COVID-19 infection as documented by a positive COVID-19 molecular test; major hemorrhagic events, including symptomatic bleeding in a critical area or organ such as the CNS, or intraocular bleeding, resulting in an SAE; serious adverse events (or non-serious adverse events with a severity level consistent with Grade 3 CTCAE of cytopenia; and atrial fibrillation.
The safety variables, including AEs, vital signs, physical examination, and laboratory values were to be summarized using descriptive statistics in each treatment group in the safety population.
All safety analyses were to be performed on the safety population. The baseline value is defined generally as the last available value before the first dose of IMP.
In general, AEs were to be analyzed in the following 3 categories: • Pre-treatment AEs: AEs that developed, worsened, or became serious during the pre-treatment period. • TEAEs: AEs that developed, worsened, or became serious during the treatment-emergent period. • Post-treatment AEs: AEs that developed, worsened, or became serious during the post-treatment period.

[7] = 400 mg BID cohort, N = 32, mITT
[8] = 400 mg TID cohort, N = 64, mITT

In the case of `CC(C)(C=C(C#N)C(=O)N1CCC[C@@H](n2nc(-c3ccc(Oc4ccccc4)cc3F)c3c(N)ncnc32)C1)N1CCN(C2COC2)CC1` (mixture of isomers) [rilzabrutinib, (R)-2-[3-[4-amino-3-(2-fluoro-4-phenoxy-phenyl)pyrazolo[3,4-d]pyrimidin-1-yl]piperidine-1-carbonyl]-4-methyl-4-[4-(oxetan-3-yl)piperazin-1-yl]pent-2-enenitrile], the “number of kinases inhibited (>90% inhibition)” value ([1]; 1 μM, panel of 251 kinases) is given as 6 kinases, the “cross-reactivity with other molecules” value ([1]; in comparison to first and second generation BTKi) is given as “minimal cross-reactivity” and the IC50 [2] is given as 0.8 nM. For the same compound, the “Number of participants censored” value [3, 7] was 20, the “Number of participants with LOAC (time-to-LOAC analysis)” value [3, 7] was 12 and the “Percentage of participants censored” value [3, 7] was “(62.5)”. The “Percentage of participants with LOAC (time-to-LOAC analysis)” value [3, 7] was “(37.5)”, the “Probability of LOAC at Week 4” value ([3]; 400 mg BID cohort, mITT, 95% CI (0.059, 0.309)) was 0.161 and the “Probability of LOAC at Week 9” value ([3]; 400 mg BID cohort, mITT, 95% CI (0.125, 0.429)) was 0.265. For the same compound, the “Probability of LOAC at Week 12” value ([3]; 400 mg BID cohort, mITT, 95% CI (0.243, 0.607)) was 0.432, the “HR vs. placebo, time to LOAC” value ([3]; 400 mg BID cohort, mITT, 95% CI (0.352, 1.595)) was 0.750 and the “Q1 of time to LOAC” value ([3]; 400 mg BID cohort, mITT, 95% CI (19.0, 84.0)) was 55.0 days. For the same compound, the “Number of participants censored” value [3, 8] was 52, the “Number of participants with LOAC (time-to-LOAC analysis)” value [3, 8] was 12 and the “Percentage of participants censored” value [3, 8] was “(81.3)”. The “Percentage of participants with LOAC (time-to-LOAC analysis)” value [3, 8] was “(18.8)”, the “Probability of LOAC at Week 4” value ([3]; 400 mg TID cohort, mITT, 95% CI (0.001, 0.080)) was 0.017 and the “Probability of LOAC at Week 9” value ([3]; 400 mg TID cohort, mITT, 95% CI (0.077, 0.261)) was 0.156. The “Probability of LOAC at Week 12” value ([3]; 400 mg TID cohort, mITT, 95% CI (0.117, 0.325)) was 0.211, the “HR vs. placebo, time to LOAC” value ([3]; 400 mg TID cohort, mITT, 95% CI (0.327, 1.408)) was 0.679 and the “discontinuation due to an adverse event” value [4] was “no participants discontinued treatment due to an adverse event”. For the same compound, the “most commonly reported adverse events” value [4] was “gastrointestinal adverse events, including nausea/vomiting and diarrhea”, the “serious adverse events or deaths” value [4] was “No serious adverse events or deaths were reported” and the “Number of participants with ≥2 additional reliever puffs vs baseline on 2 consecutive days” value ([5]; 400 mg BID, N = 32) was 6 participants. For the same compound, the “Number of participants with ≥3 additional reliever puffs vs baseline on 2 consecutive days” value ([5]; 400 mg BID, N = 32) was 3 participants, the “Number of participants with ≥4 additional reliever puffs vs baseline on 2 consecutive days” value ([5]; 400 mg BID, N = 32) was 2 participants and the “Number of participants with ≥5 additional reliever puffs vs baseline on 2 consecutive days” value ([5]; 400 mg BID, N = 32) was 2 participants. For the same compound, the “Participants with ≥2 additional reliever puffs vs baseline on 2 consecutive days, figure in parentheses (share)” value ([5]; 400 mg BID, N = 32) was 18.8, the “Participants with ≥3 additional reliever puffs vs baseline on 2 consecutive days, figure in parentheses (share)” value ([5]; 400 mg BID, N = 32) was 9.4 and the “Participants with ≥4 additional reliever puffs vs baseline on 2 consecutive days, figure in parentheses (share)” value ([5]; 400 mg BID, N = 32) was 6.3. For the same compound, the “Participants with ≥5 additional reliever puffs vs baseline on 2 consecutive days, figure in parentheses (share)” value ([5]; 400 mg BID, N = 32) was 6.3, the “Number of participants with ≥2 additional reliever puffs vs baseline on 2 consecutive days” value ([5]; 400 mg TID, N = 64) was 11 participants and the “Number of participants with ≥3 additional reliever puffs vs baseline on 2 consecutive days” value ([5]; 400 mg TID, N = 64) was 4 participants. For the same compound, the “Number of participants with ≥4 additional reliever puffs vs baseline on 2 consecutive days” value ([5]; 400 mg TID, N = 64) was 3 participants, the “Number of participants with ≥5 additional reliever puffs vs baseline on 2 consecutive days” value ([5]; 400 mg TID, N = 64) was 1 participants and the “Participants with ≥2 additional reliever puffs vs baseline on 2 consecutive days, figure in parentheses (share)” value ([5]; 400 mg TID, N = 64) was 17.2. For the same compound, the “Participants with ≥3 additional reliever puffs vs baseline on 2 consecutive days, figure in parentheses (share)” value ([5]; 400 mg TID, N = 64) was 6.3, the “Participants with ≥4 additional reliever puffs vs baseline on 2 consecutive days, figure in parentheses (share)” value ([5]; 400 mg TID, N = 64) was 4.7 and the “Participants with ≥5 additional reliever puffs vs baseline on 2 consecutive days, figure in parentheses (share)” value ([5]; 400 mg TID, N = 64) was 1.6. The “number of participants with ≥2 to 5 additional reliever puffs compared to baseline” value ([5]; both cohorts, vs. placebo arms, 12-week treatment) was “lower in the rilzabrutinib arms compared to the placebo arms”, the overall safety ([6]; 400 mg BID and TID, asthma) was “generally safe, with no evidence of new safety concerns” and the “Participants with any TEAE” value ([6]; 400 mg BID, N = 32) was 14 (43.8) n (%). The “Participants with any TEAE leading to death” value (“Participants … to death” below) ([6]; 400 mg BID, N = 32) was 0 n (%), the “Participants with any TEAE related to IMP” value (shortened to “Participants … to IMP”) ([6]; 400 mg BID, N = 32) was 5 (15.6) n (%) and the “Participants with any severe TEAE” value ([6]; 400 mg BID, N = 32) was 0 n (%). The “Participants with any treatment emergent AESI” value ([6]; 400 mg BID, N = 32) was 1 (3.1) n (%), the “Participants with any treatment emergent SAE” value ([6]; 400 mg BID, N = 32) was 2 (6.3) n (%) and the “Participants with any TEAE” value ([6]; 400 mg TID, N = 64) was 26 (40.6) n (%). For the same compound, the “Participants … to death” value ([6]; 400 mg TID, N = 64) was 0 n (%), the “Participants … to IMP” value ([6]; 400 mg TID, N = 64) was 10 (15.6) n (%) and the “Participants with any severe TEAE” value ([6]; 400 mg TID, N = 64) was 1 (1.6) n (%). The “Participants with any treatment emergent AESI” value ([6]; 400 mg TID, N = 64) was 3 (4.7) n (%), the “Participants with any treatment emergent SAE” value ([6]; 400 mg TID, N = 64) was 0 n (%) and the “Participants with any TEAE” value ([6]; combined BID and TID, N = 96) was 40 (41.7) n (%). The “Participants … to death” value ([6]; combined BID and TID, N = 96) was 0 n (%), the “Participants … to IMP” value ([6]; combined BID and TID, N = 96) was 15 (15.6) n (%) and the “Participants with any severe TEAE” value ([6]; combined BID and TID, N = 96) was 1 (1.0) n (%). The “Participants with any treatment emergent AESI” value ([6]; combined BID and TID, N = 96) was 4 (4.2) n (%) and the “Participants with any treatment emergent SAE” value ([6]; combined BID and TID, N = 96) was 2 (2.1) n (%).
